In patent publication US20160160234A1, “COMPOSITION FOR TRANSFERRING GENE TO CELL” (ISHIHARA SANGYO KAISHA, LTD., priority 2013, published 2016):

What was measured:
Jurkat cells = experiment: Luciferase gene expression after transfection with pCMV-GL3 plasmid (ONE-Glo Luciferase Assay System); conditions: Example 12, lipid ethanol solutions ¼% or ⅕%, 5 mg/mL sericin, 1 mg/mL protamine sulfate, 15 μL/well, next day
Experimental: Jurkat cells, which are suspension cultured cells, were seeded in a 96-well plate at a cell density of 4×10^4 cells/well on the day of transfection.
280 μL of a 15 mg/mL sericin (Wako Pure Chemical Industries, Ltd., trade name: Pure Sericin) PBS solution was added to 20 μL of a ½% sorbitan sesquioleate (Nacalai Tesque, Inc.) ethanol solution, and the mixture was mixed by pipetting.
The inactivated HVJ envelope suspension was diluted 2-fold, 4-fold, 8-fold, 16-fold, and 32-fold with PBS. 8 μL of a 0.3% Triton X-100 PBS solution was added to 4 μL of each of these diluted, inactivated HVJ envelope suspensions, and each mixture was centrifuged at 4° C., 10,000 g for 5 minutes with a high-speed refrigerated microcentrifuge, thereby pelleting down the inactivated HVJ envelope. […] 4 μL of PBS was added to 12.5 μL of each of the individual HVJ envelope suspensions containing the plasmid or to a 1/10 mg/mL pCMV-GL3 plasmid solution, and 20 μL of the liquid mixture of sorbitan sesquioleate and sericin prepared in advance was further added to each mixture. After each of the resulting mixtures was mixed by pipetting, 6.25 μL of a 1 mg/mL protamine sulfate PBS solution was added to each mixture, thereby preparing test compositions. Each of these test compositions was added at 9.5 μL/well to the cell culture medium.
The next day, whether gene transfer was achieved was confirmed by measuring the enzyme activity (relative value) of luciferase protein produced from the pCMV-GL3 plasmid by using ONE-Glo Luciferase Assay System (Promega).
112 μL of a 15 mg/mL sericin (Wako Pure Chemical Industries, Ltd., trade name: Pure Sericin) PBS solution was added to 8 μL of a ½% sorbitan sesquioleate (Nacalai Tesque, Inc.) ethanol solution, and the mixture was mixed by pipetting.
10 μL of a 0.2% Triton X-100 PBS solution was added to 1 μL of the inactivated HVJ envelope suspension, and the mixture was centrifuged at 4° C., 10,000 g for 5 minutes with a high-speed refrigerated microcentrifuge, thereby pelletting down the inactivated HVJ envelope. […]

NIH-3T3 cells = experiment: as above; format: cell-based
Experimental: NIH-3T3 cells, which are adherent cultured cells, were seeded in a 96-well plate at a cell density of 4×10^3 cells/well one day before transfection.
16.8 μL of a 5 mg/mL sericin PBS solution was added to 1.2 μL of a ¼% sorbitan sesquioleate (Nacalai Tesque, Inc.) ethanol solution, and the mixture was mixed by pipetting.
16.8 μL of a 5 mg/mL sericin PBS solution was added to 1.2 μL of a ¼% sorbitan monooleate (SIGMA) ethanol solution, and the mixture was mixed by pipetting.
0.6 μL of a ⅕% L-α-dioleoyl phosphatidylethanolamine (Wako Pure Chemical Industries, Ltd.; hereinafter referred to as “DOPE”) ethanol solution or 0.6 μL of ethanol was individually added to 0.6 μL of a ⅕% cardiolipin (SIGMA) ethanol solution. 16.8 μL of a 5 mg/mL sericin PBS solution was further added to each mixture, and each of the resulting mixtures was mixed by pipetting.
15 μL of a 1/10 mg/mL pCMV-GL3 plasmid solution was added to 18 μL of each of the above prepared solutions, and each mixture was mixed by pipetting. 7.5 μL of a 1 mg/mL protamine sulfate PBS solution was then added to each of the resulting mixtures, thereby preparing test compositions. Each of these test compositions was added at 15 μL/well to the cell culture media.
11.2 μL of ¼, ½, 3, 5, 20, 30, or 50 mg/mL sericin PBS solution or PBS was individually added to 0.8 μL of a ½% sorbitan sesquioleate (Nacalai Tesque, Inc.) ethanol solution, and each mixture was mixed by pipetting.
10 μL of a 1/10 mg/mL pCMV-GL3 plasmid solution was added to 12 μL of each of the prepared solutions above, and each mixture was mixed by pipetting.

THP-1 cells = experiment: Gene transfer of pTurboGFP-N plasmid observed with a fluorescence microscope; format: cell-based; conditions: Example 1, 5 μL/well, next day, FIG. 3
A549 cells [1] = test system: A549 cells
Experimental: A549 cells and NIH-3T3 cells, both of which are adherent cultured cells, were individually seeded in a 96-well plate at a cell density of 4×10^3 cells/well one day before transfection.
84 μL of a 10 mg/mL sericin (Wako Pure Chemical Industries, Ltd., trade name: Pure Sericin) aqueous solution was added to 6 μL of a ½% sorbitan sesquioleate (Nacalai Tesque, Inc.) ethanol solution, and the mixture was mixed by pipetting.
As a virus-derived envelope, a 47.8 HAU/μL inactivated HVJ envelope (GenomONE-CF: registered trademark, produced by Ishihara Sangyo Kaisha, Ltd.) suspension, which is derived from Sendai virus, was used in the experiment.
After 54 μL of PBS was added to 6 μL of the inactivated HVJ envelope suspension, 6 μL of a 2% Triton X-100 PBS solution was added thereto. The mixture was centrifuged at 4° C., 10,000 g for 5 minutes with a high-speed refrigerated microcentrifuge, thereby pelletting down the inactivated HVJ envelope. […] After 2.5 μL of the liquid mixture of the inactivated HVJ envelope and the pCMV-GL3 plasmid was transferred to each tube, 28 μL of a 1/20 mg/mL laminin (SIGMA) aqueous solution or water was individually added thereto, and each mixture was mixed by pipetting. […]

A549 cells [2] = experiment: Gene transfer of pTurboGFP-N plasmid observed with a fluorescence microscope; format: cell-based; conditions: Example 1, 5 μL/well, next day, FIG. 3
K562 cells = experiment: Luciferase gene expression after transfection with pCMV-GL3 plasmid (ONE-Glo Luciferase Assay System); format: cell-based; conditions: Example 16, in combination with the composition of the present invention or Lipofectamine LTX&PLUS reagent
RAW264.7 cells = experiment: as above; format: cell-based
Experimental: Gene transfer using FuGENE HD transfection reagent (Roche) was performed as follows.
Gene transfer using Polyethylenimine Max (Polyscience) was performed as follows. 13.5 μL of water was added to 1.5 μL of 1 mg/mL Polyethylenimine Max (pH of 7, MW of 25,000).

[3] = Example 12, lipid ethanol solutions ¼% or ⅕%, 5 mg/mL sericin, 1 mg/mL protamine sulfate, 15 μL/well, next day
[4] = Example 11, pCMV-GL3 in inactivated HVJ envelope (component F) in all compositions, 8.1 μL/well, next day
[5] = Example 16, in combination with the composition of the present invention or Lipofectamine LTX&PLUS reagent

cardiolipin
Luciferase gene expression level (relative value) (Jurkat cells): makes it possible to introduce a gene | Luciferase gene expression level (relative value) (NIH-3T3 cells; [3]): makes it possible to introduce a gene

protamine sulfate [component C]
gene transfer (green fluorescent protein TurboGFP observed with a fluorescence microscope) (THP-1 cells): Almost no gene transfer | Luciferase gene expression level (relative value) (NIH-3T3 cells; [4]): gene transfer was observed | Luciferase gene expression level (relative value) (A549 cells [1]; [4]): gene transfer was observed | gene transfer (green fluorescent protein TurboGFP observed with a fluorescence microscope) (A549 cells [2]): Almost no gene transfer

O=C(NCCCNc1nc(Nc2cccc(NC(=O)N3CCCC3)c2)ncc1I)c1cccs1 [compound A, N-[3-[[5-iodo-4-[[3-[(2-thienylcarbonyl)amino]propyl]amino]-2-pyrimidinyl]amino]phenyl]-1-pyrrolidinecarboxamide]
improvement in gene expression by compound A used in combination with a gene transfer vector (K562 cells): improvement in the gene expression was confirmed | improvement in gene expression by compound A used in combination with a gene transfer vector (RAW264.7 cells; [5]): improvement in the gene expression was confirmed | improvement in gene expression by compound A used in combination with a gene transfer vector (RAW264.7 cells; Example 17, in combination with the composition of the present invention, Lipofectamine LTX&PLUS reagent, FuGENE HD transfection reagent, or Polyethylenimine Max): improvement in gene expression was confirmed | improvement in gene expression by compound A used in combination with a gene transfer vector (A549 cells [1]; [5]): improvement in the gene expression was confirmed

Sericin
Luciferase gene expression level (relative value) (NIH-3T3 cells; Example 13, Sericin concentration 0 mg/mL (PBS), with ½% sorbitan sesquioleate and 1 mg/mL protamine sulfate, 15 μL/well): 346 | Luciferase gene expression level (relative value) (NIH-3T3 cells; Example 13, Sericin concentration 3 mg/mL, with ½% sorbitan sesquioleate and 1 mg/mL protamine sulfate, 15 μL/well): 761,785 | Luciferase gene expression level (relative value) (NIH-3T3 cells; Example 13, Sericin concentration 5 mg/mL, with ½% sorbitan sesquioleate and 1 mg/mL protamine sulfate, 15 μL/well): 729,703 | Luciferase gene expression level (relative value) (NIH-3T3 cells; Example 13, Sericin concentration 20 mg/mL, with ½% sorbitan sesquioleate and 1 mg/mL protamine sulfate, 15 μL/well): 762,661 | Luciferase gene expression level (relative value) (NIH-3T3 cells; Example 13, Sericin concentration 30 mg/mL, with ½% sorbitan sesquioleate and 1 mg/mL protamine sulfate, 15 μL/well): 458,447 | Luciferase gene expression level (relative value) (NIH-3T3 cells; Example 13, Sericin concentration 50 mg/mL, with ½% sorbitan sesquioleate and 1 mg/mL protamine sulfate, 15 μL/well): 24,194 | Luciferase gene expression level (relative value) (NIH-3T3 cells; Example 13, Sericin concentration ¼ mg/mL, with ½% sorbitan sesquioleate and 1 mg/mL protamine sulfate, 15 μL/well): 77,190 | Luciferase gene expression level (relative value) (NIH-3T3 cells; Example 13, Sericin concentration ½ mg/mL, with ½% sorbitan sesquioleate and 1 mg/mL protamine sulfate, 15 μL/well): 285,344 | gene expression compared with the case where sericin was not used (NIH-3T3 cells; Example 13, ¼ to 50 mg/mL sericin): gene expression was improved

sorbitan monooleate
Luciferase gene expression level (relative value) (Jurkat cells): makes it possible to introduce a gene | Luciferase gene expression level (relative value) (NIH-3T3 cells; [3]): makes it possible to introduce a gene

sorbitan sesquioleate
Luciferase gene expression level (relative value) (Jurkat cells): makes it possible to introduce a gene | Luciferase gene expression level (relative value) (NIH-3T3 cells; [3]): makes it possible to introduce a gene | gene expression (NIH-3T3 cells; Example 14, 1/50 to 5/2% sorbitan sesquioleate): gene expression was observed | Luciferase gene expression level (relative value) (NIH-3T3 cells; Example 14, Sorbitan sesquioleate concentration 1/2%, with 10 mg/mL sericin and 1 mg/mL protamine sulfate, 15 μL/well): 1,349,057 | Luciferase gene expression level (relative value) (NIH-3T3 cells; Example 14, Sorbitan sesquioleate concentration 1/10%, with 10 mg/mL sericin and 1 mg/mL protamine sulfate, 15 μL/well): 291,463 | Luciferase gene expression level (relative value) (NIH-3T3 cells; Example 14, Sorbitan sesquioleate concentration 1/50%, with 10 mg/mL sericin and 1 mg/mL protamine sulfate, 15 μL/well): 887 | Luciferase gene expression level (relative value) (NIH-3T3 cells; Example 14, Sorbitan sesquioleate concentration 5/2%, with 10 mg/mL sericin and 1 mg/mL protamine sulfate, 15 μL/well): 425,949
